Assay type in all cases: functional
For assay [1], the system named is PC-3. The assay is described as follows: Cytotoxicity against human PC3 cells assessed as cell viability at 50 uM after 72 hrs by crystal violet method (reference value: 95.69 +/- 7.66%). The following applies: PC-3, 72 h, read-out: Activity.
For assay [2], the system named is PC-3. The assay is described as follows: Cytotoxicity against human PC3 cells assessed as cell viability at 50 uM after 48 hrs by crystal violet method (reference value: 100.87 +/- 4.87%). As to conditions: PC-3, 48 h, read-out: Activity.
In assay [3] the test system is PC-3. The assay is described as follows: Cytotoxicity against human PC3 cells assessed as cell viability at 50 uM after 24 hrs by crystal violet method (reference value: 99.09 +/- 9.87%). The following applies: PC-3, 24 h, read-out: Activity.

For `CC1=C(CC(=O)OCCOc2no[n+]([O-])c2S(=O)(=O)c2ccccc2)c2cc(F)ccc2/C1=C\c1ccc(S(C)(=O)=O)cc1`, the viability at 50 µM in assay [1], in assay [2] and in assay [3] was 0% throughout.
For `CC1=C(CC(=O)OCCO[N+](=O)[O-])c2cc(F)ccc2/C1=C\c1ccc([S+](C)[O-])cc1` (configuration not stated), the viability at 50 µM in assay [1] was 35.5%; in assay [2], 54.9%; in assay [3], 73%.
Take `CC1=C(CC(=O)O)c2cc(F)ccc2/C1=C\c1ccc(S(C)(=O)=O)cc1` [EXISULIND]: the viability at 50 µM in assay [1] was found to be 83.5%; in assay [2], 91%; in assay [3] it was 87.8%.
The matching figures for `CC1=C(CC(=O)OCC#CCOc2no[n+]([O-])c2S(=O)(=O)c2ccccc2)c2cc(F)ccc2/C1=C\c1ccc(S(C)(=O)=O)cc1`: 27.3%, 38% and 36.5%.
The corresponding values for `CSc1ccc(/C=C2/C(C)=C(CC(=O)/N=c3\c[n+](-c4ccccc4)[n-]o3)c3cc(F)ccc32)cc1` are 77%, 90.8% and 89%.
With `CC1=C(CC(=O)OCCCCCCOc2no[n+]([O-])c2S(=O)(=O)c2ccccc2)c2cc(F)ccc2/C1=C\c1ccc(S(C)(=O)=O)cc1`, the viability at 50 µM stood at 15.4% in assay [1], 24.2% in assay [2] and 42.4% in assay [3].
For `CC1=C(CC(=O)OCCO[N+](=O)[O-])c2cc(F)ccc2/C1=C\c1ccc(S(C)(=O)=O)cc1`, the values for the viability at 50 µM in assay [1], in assay [2] and in assay [3] were 84.4%, 96.2% and 84.4%, respectively.
Regarding `CSc1ccc(/C=C2/C(C)=C(CC(=O)OCCCCO)c3cc(F)ccc32)cc1`, the viability at 50 µM was found to be 84% in assay [1], 80.5% in assay [2] and 98.2% in assay [3].
Regarding `CC1=C(CC(=O)Oc2cccc(Oc3no[n+]([O-])c3S(=O)(=O)c3ccccc3)c2)c2cc(F)ccc2/C1=C\c1ccc([S+](C)[O-])cc1` (configuration not stated), the viability at 50 µM in assay [1] came to 66.3%; in assay [2], 67.7%; in assay [3] it was 74%.
The matching figures for `CSc1ccc(/C=C2/C(C)=C(CC(=O)OCCOCCOc3no[n+]([O-])c3S(=O)(=O)c3ccccc3)c3cc(F)ccc32)cc1`: 50.8%, 71% and 55.2%.
Regarding `CSc1ccc(/C=C2/C(C)=C(CC(=O)OCC(CO[N+](=O)[O-])(CO[N+](=O)[O-])CO[N+](=O)[O-])c3cc(F)ccc32)cc1`, the results for the viability at 50 µM in assay [1], in assay [2] and in assay [3] were 110%, 101% and 88.3%, respectively.
The matching figures for `CC1=C(CC(=O)OCCCOc2no[n+]([O-])c2S(=O)(=O)c2ccccc2)c2cc(F)ccc2/C1=C\c1ccc(S(C)(=O)=O)cc1`: 0%, 0% and 0%.
The matching figures for `CSc1ccc(/C=C2/C(C)=C(CC(=O)OCC#CCOc3no[n+]([O-])c3S(=O)(=O)c3ccccc3)c3cc(F)ccc32)cc1`: 14.9%, 20.8% and 25.4%.
The corresponding values for `CC1=C(CC(=O)OCC#CCOc2no[n+]([O-])c2S(=O)(=O)c2ccccc2)c2cc(F)ccc2/C1=C\c1ccc([S+](C)[O-])cc1` (configuration not stated) are 0%, 0% and 0%.
Turning to `CSc1ccc(/C=C2/C(C)=C(CC(=O)OC/C=C\COc3no[n+]([O-])c3S(=O)(=O)c3ccccc3)c3cc(F)ccc32)cc1`, the viability at 50 µM in assay [1] was determined as 20.6%; in assay [2], 31.4%; in assay [3], 30.6%.
The corresponding values for `CC1=C(CC(=O)OCCCCO[N+](=O)[O-])c2cc(F)ccc2/C1=C\c1ccc(S(C)(=O)=O)cc1` are 54.7%, 52.9% and 68.7%.
The corresponding values for `CSc1ccc(/C=C2/C(C)=C(CC(=O)OCCCCO[N+](=O)[O-])c3cc(F)ccc32)cc1` are 17.1%, 28.4% and 49.4%.
Consider `CSc1ccc(/C=C2/C(C)=C(CC(=O)Oc3cccc(Oc4no[n+]([O-])c4S(=O)(=O)c4ccccc4)c3)c3cc(F)ccc32)cc1`, for which the viability at 50 µM in assay [1] turned out to be 80.7%; in assay [2], 88.3%; in assay [3], 81.1%.
The matching figures for `CSc1ccc(/C=C2/C(C)=C(CC(=O)OCCCCCCOc3no[n+]([O-])c3S(=O)(=O)c3ccccc3)c3cc(F)ccc32)cc1`: 29.2%, 41.7% and 57.2%.
The matching figures for `CC1=C(CC(=O)OC(CO[N+](=O)[O-])CO[N+](=O)[O-])c2cc(F)ccc2/C1=C\c1ccc(S(C)(=O)=O)cc1`: 89.4%, 89% and 88%.
The matching figures for `CC1=C(CC(=O)OC/C=C\COc2no[n+]([O-])c2S(=O)(=O)c2ccccc2)c2cc(F)ccc2/C1=C\c1ccc(S(C)(=O)=O)cc1`: 0%, 0% and 0%.
On to `CSc1ccc(/C=C2/C(C)=C(CC(=O)OCCO[N+](=O)[O-])c3cc(F)ccc32)cc1`, for which the viability at 50 µM in assay [1] is 91.2%; in assay [2] it was 119%; in assay [3], 95.6%.
The corresponding values for `CC1=C(CC(=O)Oc2cccc(Oc3no[n+]([O-])c3S(=O)(=O)c3ccccc3)c2)c2cc(F)ccc2/C1=C\c1ccc(S(C)(=O)=O)cc1` are 0%, 0% and 0%.
The matching figures for `CC1=C(CC(=O)OCC(CO[N+](=O)[O-])(CO[N+](=O)[O-])CO[N+](=O)[O-])c2cc(F)ccc2/C1=C\c1ccc([S+](C)[O-])cc1` (configuration not stated): 89.6%, 79.8% and 86%.
The matching figures for `CSc1ccc(/C=C2/C(C)=C(CC(=O)O)c3cc(F)ccc32)cc1` [SULINDAC SULFIDE]: 105%, 93.7% and 99.2%.
As to `CC1=C(CC(=O)OCCCCCCO[N+](=O)[O-])c2cc(F)ccc2/C1=C\c1ccc(S(C)(=O)=O)cc1`, the results for the viability at 50 µM in assay [1], in assay [2] and in assay [3] were 64%, 59% and 93.3%, respectively.
The corresponding values for `CC1=C(CC(=O)OCc2cccc(Oc3no[n+]([O-])c3S(=O)(=O)c3ccccc3)c2)c2cc(F)ccc2/C1=C\c1ccc(S(C)(=O)=O)cc1` are 63.6%, 67.7% and 88.3%.
With `CC1=C(CC(=O)/N=c2\c[n+](-c3ccccc3)[n-]o2)c2cc(F)ccc2/C1=C\c1ccc(S(C)(=O)=O)cc1`, the viability at 50 µM worked out at 81.1% in assay [1], 74.5% in assay [2] and 108% in assay [3].
As to `CC1=C(CC(=O)OCCCCO)c2cc(F)ccc2/C1=C\c1ccc([S+](C)[O-])cc1` (configuration not stated), the viability at 50 µM in assay [1] came out at 96.5%; in assay [2] it was 76.9%; in assay [3], 96.6%.

Source of the values: ChEMBL document CHEMBL3102738, “Synthesis and biological evaluation of nitric oxide-donating analogues of sulindac for prostate cancer treatment” (Bioorg Med Chem, 2014).
